Tests used:
[1] = system: HeLa cells; test: [3H] Adenosine uptake assay; format: cell-based; details: Homo sapiens, HeLa, accumulation of tritiated adenosine into HeLa cells; compound concentration range 10 μM to 0.032 nM; read-out: ADU inhibition IC50 (adenosine uptake inhibition potency)
Experimental: Compounds are also screen in an adenosine uptake functional cellular assay using the protocol described below:
[^3H] Adenosine Uptake Assay Methods
Adenosine uptake activity was determined by monitoring the accumulation of tritiated adenosine into HeLa cells (ATCC catalog #CCL-2) using a PMT-based radiometric detection instrument. […] These cells were incubated overnight at 37° C. in a humidified atmosphere with 5% (v/v) CO2. After this time the growth medium was removed and replaced with 40 μL assay medium comprising: Hanks balanced salts solution (HBSS; Thermo Fisher Catalog #SH30268.01)+5% (v/v) FBS. Compound stock solutions in DMSO were diluted in assay medium to 2.5× final compound concentration maintaining a constant DMSO concentration of 0.25% (v/v). 40 μL of compound in assay medium was dispensed into individual wells of the Cytostar-T plates and the plates were incubated for 30 minutes under ambient laboratory conditions. Following this incubation, 20 μL of 500 nM[^3H] adenosine (American Radiolabeled Chemicals Inc. Catalog #ART0287) in assay medium was added and incubated for a further 60 minutes under ambient laboratory conditions. The amount of radiolabel accumulation was then determined using a Perkin Elmer Topcount NXT microplate reader. In brief, HeLa cells adhere to the bottom of the Cytostar-T plate, uptake of [^3H]adenosine into these cells brings the radiolabel into sufficient proximity to excite the scintillant in the base of the plates. These events are captured by single PMT, time-resolved coincidence counting. IC50 values were determined by 4 parameter robust fit of counts per second values vs. (Log10) compound concentrations.

[2] = target: BTK enzyme (recombinant full-length BTK, hBTK) (Homo sapiens (Human), UniProt Q06187); test: Btk enzyme activity assay, LANCE TR-FRET; format: biochemical; details: 50 pM hBTK, 2 μM biotin-A5-peptide, 25 μM ATP; 60 minute compound & enzyme incubation; read-out: BTK binding IC50
Experimental: Btk Enzyme Activity Assay Methods
BTK enzymatic activity was determined with the LANCE (Lanthanide Chelate Excite) TR-FRET (Time-resolved fluorescence resonance energy transfer) assay. […] After 60 minutes incubation with detection reagents, reaction plates were read on a PerkinElmer EnVision plate reader using standard TR-FRET protocol.

BTK enzyme (recombinant full-length BTK, hBTK), sequence (Q06187 whole entry): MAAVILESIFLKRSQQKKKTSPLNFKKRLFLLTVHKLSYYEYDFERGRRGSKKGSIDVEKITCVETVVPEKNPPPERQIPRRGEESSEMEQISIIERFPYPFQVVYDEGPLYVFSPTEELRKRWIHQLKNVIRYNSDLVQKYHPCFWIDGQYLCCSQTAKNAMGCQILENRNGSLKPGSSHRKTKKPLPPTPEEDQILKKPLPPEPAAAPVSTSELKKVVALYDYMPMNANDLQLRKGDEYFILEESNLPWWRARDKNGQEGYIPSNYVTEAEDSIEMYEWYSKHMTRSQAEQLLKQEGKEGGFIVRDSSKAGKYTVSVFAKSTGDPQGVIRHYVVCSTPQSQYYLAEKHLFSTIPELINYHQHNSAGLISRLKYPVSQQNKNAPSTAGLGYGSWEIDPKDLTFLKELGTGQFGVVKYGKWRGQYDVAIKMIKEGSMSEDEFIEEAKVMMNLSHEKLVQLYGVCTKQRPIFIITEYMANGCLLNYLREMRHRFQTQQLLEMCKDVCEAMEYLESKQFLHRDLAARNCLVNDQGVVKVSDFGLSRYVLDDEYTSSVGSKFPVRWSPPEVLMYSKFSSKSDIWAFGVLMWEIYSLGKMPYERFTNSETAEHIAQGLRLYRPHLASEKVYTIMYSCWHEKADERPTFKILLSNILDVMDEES

SMILES	IC50 [1]	IC50 [2]
CN1CC[C@@H](c2nc(-c3ccc(C(=O)Nc4cc(C(F)(F)F)ccn4)cc3)c3c(N)nccn23)C[C@H]1C(=O)O [Example 82, (2S,4R)-4-[8-amino-1-(4-{[4-(trifluoromethyl)pyridin-2-yl]carbamoyl}phenyl)imidazo[1,5-a]pyrazin-3-yl]-1-methylpiperidine-2-carboxylic acid]	1.73 µM	0.0012 µM
CCOc1cc(C(=O)Nc2cc(C(F)(F)F)ccn2)ccc1-c1nc(C23C4C5C2C2C3C4C52C(=O)O)n2ccnc(N)c12 (stereo not shown) [Example 71, 4-(8-amino-1-(2-ethoxy-4-((4-(trifluoromethyl)pyridin-2-yl)carbamoyl)phenyl)imidazo[1,5-a]pyrazin-3-yl)cubane-1-carboxylic acid]	2.47 µM	0.00065 µM
CCOc1cc(C(=O)Nc2cc(C(F)(F)F)ccn2)ccc1-c1nc([C@]23CC[C@](C(=O)O)(CC2O)C(O)C3)n2ccnc(N)c12 (stereo partly drawn) [Example 73, (1S,4R)-4-[8-amino-1-(2-ethoxy-4-{[4-(trifluoromethyl)pyridin-2-yl]carbamoyl}phenyl)imidazo[1,5-a]pyrazin-3-yl]-2,5-dihydroxybicyclo [2.2.2]octane-1-carboxylic acid]	3.65 µM	0.0088 µM
CCOc1cc(C(=O)Nc2cc(C(F)(F)F)ccn2)ccc1-c1nc(C23CCC(C(=O)O)(CC2(F)F)C(F)(F)C3)n2ccnc(N)c12 (stereo not shown) [Example 66, 4-[8-amino-1-(2-ethoxy-4-{[4-(trifluoromethyl)pyridin-2-yl]carbamoyl}phenyl)imidazo[1,5-a]pyrazin-3-yl]-2,2,5,5-tetrafluorobicyclo [2.2.2]octane-1-carboxylic acid]	10 µM	0.00047 µM
Nc1nccn2c(C34C5C6C3C3C4C5C63C(=O)O)nc(-c3ccc(C(=O)Nc4cc(C5CC5)ccn4)cc3F)c12 (stereo not shown) [Example 74, 4-(8-amino-1-(4-((4-cyclopropylpyridin-2-yl)carbamoyl)-2-fluorophenyl)imidazo [1,5-a]pyrazin-3-yl)cubane-1-carboxylic acid]	0.113 µM	0.00054 µM
COc1cc(C(=O)Nc2cc(C(F)(F)F)ccn2)ccc1-c1nc(C23C4C5C2C2C3C4C52C(=O)O)n2ccnc(N)c12 (stereo not shown) [Example 75, 4-(8-amino-1-(2-methoxy-4-((4-(trifluoromethyl)pyridin-2-yl)carbamoyl)phenyl)imidazo[1,5-a]pyrazin-3-yl)cubane-1-carboxylic acid]	0.743 µM	0.00056 µM
C[C@@]1(C(=O)O)CC[C@@](C)(c2nc(-c3ccc(C(=O)Nc4cc(C(F)(F)F)ccn4)cc3)c3c(N)nccn23)C1 [Example 79, (1R,3R)-3-[8-amino-1-(4-{[4-(trifluoromethyl)pyridin-2-yl]carbamoyl}phenyl)imidazo[1,5-a]pyrazin-3-yl]-1,3-dimethylcyclopentane carboxylic acid]	1.59 µM	0.00073 µM

Next, values leading:

IC50 [1]	IC50 [2]	SMILES
6.69 µM	0.00073 µM	COc1cc(C(=O)Nc2cc(C(F)(F)F)ccn2)cc(F)c1-c1nc(C23CCC(C(=O)O)(CC2)CC3)n2ccnc(N)c12 [Example 108, 4-[8-amino-1-(2-fluoro-6-methoxy-4-{[4-(trifluoromethyl)pyridin-2-yl]carbamoyl}phenyl)imidazo[1,5-a]pyrazin-3-yl]bicyclo[2.2.2] octane-1-carboxylic acid]
10 µM	0.002 µM	CCOc1cc(C(=O)Nc2cc(C(F)(F)F)ccn2)ccc1-c1nc(C23CCC(C(=O)O)(CC2)CC3)n2c(F)cnc(N)c12 [Example 173, 4-[8-amino-1-(2-ethoxy-4-{[4-(trifluoromethyl)pyridin-2-yl]carbamoyl}phenyl)-5-fluoroimidazo[1,5-a]pyrazin-3-yl]bicyclo[2.2.2] octane-1-carboxylic acid]
4.73 µM	0.00093 µM	Nc1nccn2c([C@H]3CN(C4CC(C(=O)O)C4)CCO3)nc(-c3ccc(C(=O)Nc4cc(C(F)(F)F)ccn4)cc3)c12 (stereo partly drawn) [Example 179, 3-{(2R)-2-[8-amino-1-(4-{[4-(trifluoromethyl)pyridin-2-yl]carbamoyl}phenyl)imidazo [1,5-a]pyrazin-3-yl]morpholin-4-yl}cyclobutanecarboxylic acid]
3.16 µM	0.00025 µM	C[C@@]1(C(=O)O)CC[C@@](C)(c2nc(-c3ccc(C(=O)Nc4cc(C(F)(F)F)ccn4)cc3Cl)c3c(N)nccn23)C1 [Example 132, (1R,3R)-3-[8-amino-1-(2-chloro-4-{[4-(trifluoromethyl)pyridin-2-yl]carbamoyl}phenyl)imidazo[1,5-a]pyrazin-3-yl]-1,3-dimethylcyclopentane carboxylic acid]
0.891 µM	0.0019 µM	CC(C)[C@@]1(C(=O)O)CC[C@H](N2C[C@H](c3nc(-c4ccc(C(=O)Nc5cc(C(F)(F)F)ccn5)cc4F)c4c(N)ncc(Cl)n34)OC[C@@H]2C)C1 [Example 203, (1R,3S)-3-{(2R,5S)-2-[8-amino-5-chloro-1-(2-fluoro-4-{[4-(trifluoromethyl)pyridin-2-yl]carbamoyl}phenyl)imidazo [1,5-a]pyrazin-3-yl]-5-methylmorpholin-4-yl}-1-(1-methylethyl) cyclopentanecarboxylic acid]
10 µM	0.0072 µM	CC1(C)[C@H](C(=O)O)CC[C@@]1(C)c1nc(-c2ccc(C(=O)Nc3cc(C(F)(F)F)ccn3)cc2)c2c(N)nccn12 [Example 148, (1R,3R)-3-[8-amino-1-(4-{[4-(trifluoromethyl)pyridin-2-yl]carbamoyl}phenyl)imidazo[1,5-a]pyrazin-3-yl]-2,2,3-trimethylcyclopentane carboxylic acid]
8.77 µM	0.004 µM	CCOc1cc(C(=O)Nc2cc(C(F)(F)F)ccn2)ccc1-c1nc([C@@H]2CC[C@H](C(C)C)[C@H](C(=O)O)C2)n2ccnc(N)c12 [Example 98, (1R,2R,5R)-5-[8-amino-1-(2-ethoxy-4-{[4-(trifluoromethyl)pyridin-2-yl]carbamoyl}phenyl)imidazo[1,5-a]pyrazin-3-yl]-2-(1-methylethyl) cyclohexane-carboxylic acid]
5.41 µM	0.0612 µM	COc1cc(C(=O)Nc2cc(C(F)(F)F)ccn2)ccc1-c1nc([C@H]2CN(C(C)(C)C(=O)O)CCO2)n2ccnc(N)c12 [Example 184, 2-{(2R)-2-[8-amino-1-(2-methoxy-4-{[4-(trifluoromethyl)pyridin-2-yl]carbamoyl}phenyl)imidazo [1,5-a]pyrazin-3-yl]morpholin-4-yl}-2-methylpropanoic acid]
6.65 µM	0.0013 µM	Nc1nccn2c([C@@H]3CCCN(C(=O)C4CC4C(=O)O)C3)nc(-c3ccc(C(=O)Nc4cc(C(F)(F)F)ccn4)cc3)c12 (stereo partly drawn) [Example 150, 2-({(3R)-3-[8-amino-1-(4-{[4-(trifluoromethyl)pyridin-2-yl]carbamoyl}phenyl)imidazo[1,5-a]pyrazin-3-yl]piperidin-1-yl}carbonyl) cyclopropane-carboxylic acid]
3.02 µM	0.0011 µM	C[C@@]1(C(=O)O)CCC[C@H](c2nc(-c3ccc(C(=O)Nc4cc(C5CC5)ccn4)cc3)c3c(N)nccn23)C1 [Example 159, (1R,3S)-3-(8-amino-1-{4-[(4-cyclopropylpyridin-2-yl)carbamoyl]phenyl}imidazo[1,5-a]pyrazin-3-yl)-1-methylcyclohexane-carboxylic acid]
